Series [1] is classed as in vivo, B6C3 mice. Conditions: for organ with the highest uptake: 5 min following tracer injection, blood, heart, lungs, liver, kidney; for DAR (differential absorption ratio), cerebellum / DAR (differential absorption ratio), cerebral cortex / DAR (differential absorption ratio), hippocampus / DAR (differential absorption ratio), prefrontal cortex / DAR (differential absorption ratio), striatum: 5 min post-injection, i.v.; for DAR (differential absorption ratio), cerebellum / DAR (differential absorption ratio), cerebral cortex / DAR (differential absorption ratio), hippocampus / DAR (differential absorption ratio), prefrontal cortex / DAR (differential absorption ratio), striatum / time of highest ratio of radioactivity uptake between forebrain regions and the cerebellum: mice; for clearance of radioactivity from the brain: mouse, in vivo; for time of highest ratio of radioactivity uptake between forebrain regions and the cerebellum: post-injection. On the procedure:
Male, 7-9 weeks old, B6C3 mice were used in all experiments. Animals were anaesthetized with an i.p. injection of Hypnorm/dormicum (12 ml/kg), after which [^18F]PK209 (as prepared in Example 26) (19.0±1.1 MBq at t0) or [^11C]PK083 (as prepared in Example 22) (24.4±3.5 MBq at t0) was administered via the tail vein, in a saline solution containing 10% ethanol (5 ml/kg). Following the injections, mice were killed by cervical dislocation at 5, 10, 30, or 60 min (n=4−6). At each time point, blood was obtained by heart punctures and selected organs, including the heart, liver, kidneys, lungs and brain were removed. The brain was further dissected into prefrontal cortex, striatum, cerebral cortex, hippocampus and cerebellum. All organs and brain areas were weighed, and recovered radioactivity was determined with a Compugamma (LKB Wallac), using 5×10 μl aliquots of the injected formulation as standard. Results are expressed as the differential absorption ratio (DAR): (cpm recovered/g tissue)/(cpm injected/g body weight). Two-way repeated measures ANOVA, followed by LSD post-hoc analysis was used for between-region (or organ) comparisons of radiotracer uptake at different time points.

A further series is described as follows: physchem. It counts as physicochemical. Particulars: 1-octanol / 0.2M phosphate buffer pH 7.4, room temperature, triplicate; read-out: LogDoct,7.4. On the procedure: The distribution of the radio labeled compounds between 1-octanol and 0.2M phosphate buffer (pH=7.4) was measured in triplicate at room temperature. Briefly, 1 mL of a 20 MBq/mL solution of the radio labeled compound in 0.2M phosphate buffer (pH=7.4) was vigorously mixed with 1 mL of 1-octanol for 1 min at room temperature using a vortex. After a settling period of 30 min, five samples of 100 μL were taken from both layers. For determining recovery, 5 samples of 100 μL were taken from the 20 MBq/mL solution. All samples were counted for radioactivity. The LogDoct,7.4 value was calculated according to LogDoct,7.4=^10Log(Aoct/Abuffer), where Aoct and Abuffer represent the average radioactivity counted of the 5 1-octanol and 5 buffer samples, respectively.

The target in a further series is NMDAR ion channel. Description: Competition binding assay against [3H]MK-801 in rat forebrain membranes. Particulars: against 5 nM [3H]MK-801; mean±SEM of 2-6 independent determinations, each in triplicate. On the procedure: Male Wistar rats (150-200 g) were killed by decapitation. The forebrains were rapidly removed and homogenized using a DUALL tissue homogenizer (10 strokes, 2000 rpm), in a 7-fold excess (v/w) of ice-cold 0.25 M sucrose. The nuclei and cell debris were removed by centrifugation (10 min x 400×g) in a Sorvall RC-6 refrigerated centrifuge (rotor SA600). The supernatant was decanted and the resulting pellet was rehomogenized in 5 vol 0.25 M sucrose and recentrifuged. The combined supernatants were diluted in Tris-acetate buffer (50 mM, pH 7.4) to a final dilution of 40 v/w, and centrifuged for 30 min×30,000×g, in order to obtain membranes from the cell surface, mitochondrial, and microsomal fractions. The pellet was resuspended in 20 vol of 50 mM Tris buffer containing 0.04% Triton X-100 (pH 7.4), and was kept at 25° C. for 2 hr before recentrifugation. The resulting pellet was suspended in Tris-HCl buffer (dilution 4, pH 7.4) and stored at −80° C. in 5 ml aliquots. On the day of each experiment, membranes were thawed to room temperature and washed twice by centrifugation (30 min×200,000×g). After the final centrifugation step, pellets were suspended in 50 mM Tris-HCl buffer (pH 7.4) and further diluted to 40 vol of buffer per g original weight wet tissue for competition binding experiments.
Protein concentration was determined using the BCA protein kit (Sigma-Aldrich, The Netherlands).
In vitro competition binding experiments were performed using 5 nM [^3H]MK-801 (specific activity 22.5 Ci/mmol; PerkinElmer, USA). All compounds as prepared in the Examples and listed in Table 2 were dissolved as 10 mM stock solutions in DMSO, and used in a concentration range from 10^−4 to 10^−12 M, with a maximal DMSO concentration of 1%. Competition binding experiments were conducted at room temperature, in a final volume of 500 μl assay buffer (50 mM Tris-HCl, pH 7.4), containing 1 μM L-glutamate and glycine. The incubation mixture was composed of 400 μl membrane suspension (protein concentration 1 μg/μL), 50 μL [^3H]MK-801, 45 μl assay buffer and 5 μl unlabeled drug solution. Nonspecific binding was determined in the presence of 30 μM GMOM. Incubations were terminated overnight by filtration, using a 48-well Brandel harvester and Whatman GF/B filters, presoaked in 0.3% polyethyleneimine. The filters were washed three times with 3 ml of ice-cold Tris-HCl buffer (pH 7.4), and radioactivity was subsequently determined by liquid scintillation spectrometry in 5 mL of Optiphase-HiSafe 3, at an efficiency of 40%.
Ki values were determined by nonlinear regression analysis using the equation: log EC50=log [10̂log Ki*(1+RadioligandNM/HotKdNM)], (GraphPad Software Inc., San Diego, Calif.).
In this table the Ki for the different compounds is stated. The Ki as measured against 5 nM [^3H]MK-801 and represent the mean±SEM Ki values of 2-6 independent determinations, each conducted in triplicate, The indexes (b), (c) and (d) describe the form in which the compound was tested: (b) fumaric acid salt, (c) free base, (d) hydrochloric acid salt.

A further series relates to NMDA receptors. The experiment in a line: Ex vivo autoradiography and MK-801 blocking study. The format is in vivo, mice. On the procedure: To visualize the distribution and specificity of [^18F]PK209 or [^11C]PK083 for NMDA receptors, anaesthetized mice were injected with either saline or MK-801 (0.6 mg/kg, i.p.), 10 min before a tail-vein injection of each of the radiolabeled compounds (n=2). 5 min following injection of [^11C]PK083 or 15 min after [^18F]PK209 injection, mice were killed by cervical dislocation, and their brains were removed, frozen in liquid nitrogen and processed for quantitative autoradiography. Briefly, 20 μm coronal brain sections were cut at 300 μm intervals, from rostral to caudal areas. Sections from each mouse were opposed to Kodak Biomax MR-1 film, either immediately or following 2×30 sec washes in ice-cold Tris-HCl buffer (pH 7.4) and a dip in ice-cold demi water. Films were developed after 24 hr, and relevant optical density (ROD) values were obtained using the MCID software. Sections from control and MK-801 treated mice were processed in parallel. All brain regions were identified by reference to the mouse atlas of Franklin and Paxinos (2001).
Reference is made to FIG. 3. […] FIG. 3A the [^18F]209 specific binding (relevant optical density) is shown for (from left to right) frontal cortex, striatum, hippocampus, cerebral cortex and cerebellum. In FIG. 3B representative images are shown for (from bottom to top) cerebellum, hippocampus, striatum, cerebral cortex and frontal cortex.
Specific binding was defined as that […] pretreatment with MK-801 (0.6 mg/kg i.p.). […] Specific [^18F]PK-209 binding constituted 10% and 8% of total binding values in the hippocampus and the cerebral cortex, respectively.

[2] abbreviates: quantitative autoradiography, relevant optical density.

The term Ki denotes the dissociation constant of the complex between target and ligand, obtained from inhibition or displacement. Low readings indicate higher affinity, high ones lower affinity.

On to `CSc1ccc(Cl)c(NC(=N)N([11CH3])c2cccc(OC(F)F)c2)c1` [[^11C]PK083, 1-(2-chloro-5-(methylthio)phenyl)-3-^11C-methyl-3-(3-(difluoromethoxy)phenyl)guanidine], for which, in series [1], the “organ with the highest uptake” value is listed as “lungs”; the “DAR (differential absorption ratio), cerebellum” value is given as 0.55±0.07; the “DAR (differential absorption ratio), cerebral cortex” value is reported as 0.83±0.11; the “DAR (differential absorption ratio), hippocampus” value came to 1.41±0.46. For the same molecule, in series [1], the “DAR (differential absorption ratio), prefrontal cortex” value came out at 0.96±0.16; the “DAR (differential absorption ratio), striatum” value worked out at 0.86±0.13; the “clearance of radioactivity from the brain” value is given as “rapidly cleared”; the “time of highest ratio of radioactivity uptake between forebrain regions and the cerebellum” value is 5 min. Also, in “physchem”, the logD amounted to 1.76 ± 0.01.
With `CSc1ccc(Cl)c(NC(=N)Nc2cccc(OC(F)F)c2)c1` [compound 7, 1-(2-chloro-5-(methylthio)phenyl)-3-(3-(difluoromethoxy)phenyl)guanidine], the Ki at NMDAR ion channel came out at 147 ± 15 nM.
Same read-out and setting: with `CSc1ccc(Cl)c(NC(=N)N(C)c2cccc(OC(F)(F)C(F)F)c2)c1` [compound 20, 3-(2-chloro-5-(methylthio)phenyl)-1-methyl-1-(3-(1,1,2,2-tetrafluoroethoxy)phenyl)guanidine] the figure was 56.7 ± 6.2 nM.
As to `CSc1ccc(Cl)c(NC(=N)N(C)c2cccc(OC[18F])c2)c1` [[^18F]PK209], in series [1], the “organ with the highest uptake” value was “lungs”; the “DAR (differential absorption ratio), cerebellum” value amounted to 0.84±0.09; the “DAR (differential absorption ratio), cerebral cortex” value is reported as 1.17±0.07; the “DAR (differential absorption ratio), hippocampus” value came to 1.05±0.09. In series [1], the “DAR (differential absorption ratio), prefrontal cortex” value is 1.19±0.10; the “DAR (differential absorption ratio), striatum” value is reported as 1.19±0.15; the “clearance of radioactivity from the brain” value was “cleared rapidly”; the “time of highest ratio of radioactivity uptake between forebrain regions and the cerebellum” value was determined as 15 min. In addition, the logD in the series “physchem” is 1.45 ± 0.02. Also, in the series with NMDA receptors (15 min after injection, MK-801 0.6 mg/kg i.p. pretreatment), the “specific binding as share of total binding, cerebral cortex” value is 8%. In the series with NMDA receptors (setting [2]), the “binding level, cerebellum” value is reported as “moderate”; the “binding level, cerebral cortex” value is recorded as “high”; the “binding level, frontal cortex” value was “low”; the “binding level, hippocampus” value was “high”. For the same molecule, the “binding level, striatum” value in the series with NMDA receptors (setting [2]) is on record as “low”.
Turning to `CSc1ccc(Cl)c(NC(=N)Nc2cccc(OC(F)(F)F)c2)c1` [compound 8, 1-(2-chloro-5-(methylthio)phenyl)-3-(3-(trifluoromethoxy)phenyl)guanidine], at NMDAR ion channel, the Ki was 235 ± 55.5 nM.
On the same count and under the same terms, in the case of `CSc1ccc(Cl)c(NC(=N)N(C)c2cccc(OC(F)F)c2)c1` [compound 18, 3-(2-chloro-5-(methylthio)phenyl)-1-(3-(difluoromethoxy)phenyl)-1-methylguanidine] it was 10 ± 2 nM.
On the same count and under the same terms, with `COc1cccc(N(C)C(=N)Nc2cc(SC)ccc2Cl)c1` [compound 14, reference compound] the figure was 21.7 ± 2.2 nM; with `CSc1ccc(Cl)c(NC(=N)N(C)c2cccc(O)c2)c1` [compound 17, 3-(2-chloro-5-(methylthio)phenyl)-1-(3-hydroxyphenyl)-1-methylguanidine], 551 ± 57.8 nM.
`CSc1ccc(Cl)c(NC(=N)N(C)c2cccc(OCCCF)c2)c1` [compound 23, 3-(2-chloro-5-(methylthio)phenyl)-1-(3-(3-fluoropropoxy)phenyl)-1-methylguanidine] came in with a Ki on NMDAR ion channel of 179 ± 39 nM.
On the same count and under the same terms, in the case of `CSc1ccc(Cl)c(NC(=N)N(C)c2cccc(OC(F)(F)F)c2)c1` [compound 19, 3-(2-chloro-5-(methylthio)phenyl)-1-methyl-1-(3-(trifluoromethoxy)phenyl)guanidine] it was 12 ± 2 nM.

The values are drawn from US20140154182A1 (priority 2011, published 2014).
